# Reference: PMC11025498, “First-in-human Phase I Trial of TPST-1120, an Inhibitor of PPARα, as Monotherapy or in Combination with Nivolumab, in Patients with Advanced Solid Tumors” (Cancer Research Communications, 2024)
# Read-outs that look alike come from different tables or passages of the source.
# Experiments:
# [1] = system: RCC; assay: prior regimens of the RCC responders; type: in vivo, human; conditions: prior regimens of person RCC responder
# [2] = system: patients with RCC; conditions: nivolumab monotherapy after previous ICI therapy, retrospective, cited from earlier work
# [3] = system: patients with PD-L1 combined positive score ≤1; design: method as in PMID 32359091, PMID 32352498, PMID 35611499, PMID 34907910; conditions: CCA, KEYNOTE-158; cited from earlier work
compound,measurement,setting,value
COc1cc2nccc(Oc3ccc(NC(=O)C4(C(=O)Nc5ccc(F)cc5)CC4)cc3)c2cc1OC [Cabozantinib],Duration,[1],6.3 mo
CO[C@H]1C[C@@H]2CC[C@@H](C)[C@@](O)(O2)C(=O)C(=O)N2CCCC[C@H]2C(=O)O[C@H]([C@H](C)C[C@@H]2CC[C@@H](OCCO)[C@H](OC)C2)CC(=O)[C@H](C)/C=C(\C)[C@@H](O)[C@@H](OC)C(=O)[C@H](C)C[C@H](C)/C=C/C=C/C=C/1C [Everolimus],Duration,[1],6.1 mo
nivolumab: PD-1 inhibitor,ORR,[2]; ref 33,16%
same,ORR,[2]; ref 34,23%
pembrolizumab: ICI monotherapy in the KEYNOTE-158 trial,ORR,[3],2.9%
